The text below walks through data of patent publication US7638554B2, “Flavanoids as chemotherapeutic, chemopreventive, and antiangiogenic agents” (SRI International, priority 2002, dated 2009).

Data set [1] concerns MDA-MB-231 (ER−) breast cancer cell line. As to the kind of experiment: Growth inhibition assay, MTT, MDA-MB-231 breast cancer cells. Type of data set: cell-based, human. The following applies: Homo sapiens, MDA-MB-231, 192 h, eight days, average of at least two experiments. Here is the method: Compounds of the invention were tested for their ability to inhibit growth in two breast cancer cell lines, MCF-7 (ER+) and MDA-MB-231 (ER−).
The growth inhibition assays were conducted using routine methods. Briefly, the cells were seeded in 24-well plates at a density of 2000 cells per well in 200 μL of […] growth medium. To each well was added 10 μL of DMSO containing the dissolved test compound; final DMSO concentration in each well was not more than 0.5%. Each test compound was assayed at concentrations of 0.4, 2, 10, and 50 μM. The plates were incubated for eight days, with the media and test solutions replaced every third day. On Day 8, the viable cells were measured by the MTT assay, as described in Mosmann et al. (1983), “Rapid Colorimetric Assay for Cellular Growth and Survival: Application to Proliferation and Cytotoxicity,” J. Immunol. Method. 65:55-63. The optical density at 575 nm of each test well was measured and compared to that for control wells, and the data used to calculate the percentage of growth inhibition at different concentrations. The IC50 value (the concentration of growth inhibitor that results in 50% growth inhibition of the cells in culture relative to control cells not exposed to any growth inhibitor) was determined by plotting dose-response curves.
The calculated IC50 values are set forth in Table 1, with the results representing the average of at least two experiments conducted for each compound at each of the four concentrations.

Data set [2] relates to prostate cancer cell line LNCaP. The data set is described as follows: Growth inhibition, sulforhodamine-based protein determination, LNCaP. Type of data set: cell-based. The following applies: Homo sapiens. Here is the method:
(§1) The novel compound SR 13179 was assayed for its ability to inhibit growth in several cancer cell lines. The cell lines studied included breast cancer cell line MCF-7 (ER+); prostate cancer cell lines LNCaP, PC3, and DU145; lung cancer cell line A427; ovarian cancer cell lines IGROV1, OVCAR-3, OVCAR-4, OVCAR-5, OVCAR-8, and SK-OV-3; and colon cancer cell lines COLO 205, HCC-2998, HCT-116, HCT-15, HT29, KM12, AND SW-620.
(§2) The growth assays for the breast cancer cell lines were conducted according to the method of Example 16. For the other cell lines, each assay was conducted with continuous exposure to the test compound at four log concentrations for six days, using a sulforhodamine-based protein determination to measure growth inhibition.
The procedure of Example 20 was used to evaluate the growth inhibitory effect of various compounds of the invention on LNCaP cells.

Data set [3] concerns ovarian cancer cell line OVCAR-3. The data set is described as follows: Growth inhibition, sulforhodamine-based protein determination, OVCAR-3. The data set is classed as cell-based. The following applies: Homo sapiens, OVCAR-3, 144 h; continuous exposure six days. Here is the method: as §1, §2
In data set [4] the test system is ovarian cancer cell line SK-OV-3. As to the kind of experiment: Growth inhibition, sulforhodamine-based protein determination, SK-OV-3. The data set is classed as cell-based. The following applies: Homo sapiens, SK-OV-3, 144 h; continuous exposure six days. Here is the method: as §1, §2
Data set [5] deals with human umbilical vein endothelial cells (HUVECs). As to the kind of experiment: Growth inhibition of HUVECs, MTT assay. Type of data set: cell-based. The following applies: HUVEC, read-out: concentration to inhibit growth by 50%, HUVECs. Here is the method: Angiogenesis depends upon the proliferation of vascular endothelial cells. To determine the potential antiangiogenic activity of SR 13179, the compound's ability to inhibit the proliferation of these cells was assayed. Apoptosis was then investigated as a possible mechanism for the antiproliferative activity.
Human vascular endothelial cells taken from umbilical veins (HUVECs) were obtained from Clonetics Corporation (San Diego, Calif.). Growth inhibition was measured quantitatively using the MTT assay as described by Mosmann et al., cited in the previous example.
The concentration to inhibit growth by 50% was 0.37 μM.
Background: Tetrazolium dyes change colour on reduction, which living cells bring about.

In data set [6] the test system is MCF-7 human breast carcinoma cells. As to the kind of experiment: Cell cycle analysis in MCF-7 cells. The data set is classed as cell-based. The following applies: 1 μM, 24 h.
The subject of data set [7] is SKOV-3 human ovarian cancer xenografts. As to the kind of experiment: SKOV-3 adriamycin- and cisplatin-resistant human ovarian cancer xenografts in nude mice. Type of data set: in vivo, female BALB/c mice. Here is the method:
The in vivo antitumor activity of SR 13179 against the highly aggressive adriamycin and cisplatin-resistant human ovarian cancer cell line SKOV-3 was evaluated in nude mice xenografts. The experiment was carried out as follows: Female BALB/c mice were inoculated subcutaneously with the human ovarian cancer SKOV-3 cells on both flanks. SR 13179 was administered to the mice on the same day as tumor cell inoculation, via two routes of administration, orally and intraperitoneally, in three doses of 10 mg/kg, 30 mg/kg and 100 mg/kg, once a day as a suspension in 0.5% hydroxypropylcellulose. Body weights and tumor volumes were measured twice a week. Results. […] The body weights of the treated mice were unaffected at all doses studied.
A general note: Xenograft models place foreign cells or tissue in a host animal.

Data set [8] concerns MMP-2 (gelatinase). The data set is described as follows: Zymography of MMP-2 activity in supernatants of MCF-10-CA1a cultures. Type of data set: cell-based, human. The following applies: 5 μM, 48 h, serum-free medium. Here is the method: Zymography. Zymography as used herein is illustrated by the following general procedure. MCF10CA1a cells were grown in 100 mm in diameter tissue culture plates until 90% confluent. The cells were washed once with serum-free medium and placed in serum-free medium for 2 h prior to drug treatment. The candidate agent was added to the plate and the plate was incubated in the 5% CO2 incubator at 37° C. for 16 h. The medium was collected, concentrated and subjected to zymography. In brief, 10 μl of the sample was electrophoresed in 8% polyacrylamide gel containing 0.1% gelatin in the presence of SDS. After electrophoresis, gel was washed two times, 20 min each, in 2.5% Triton X-100 and incubated overnight at 37° C. in a solution containing 50 mM Tris-HCl, pH 8, 5 mM CaCl2, 10 mM ZnCl2 and 0.02% NaN3. The gel was then stained for 30 min with 0.5% Coomassie Brilliant Blue R-250 prepared in 30% methanol/10% acetic acid solution and destained with several washes with water.
The effect of SR 13179 on the activity of MMP-2 (gelatinase) was studied. MCF-10-CA1a cells were treated with 1, 3, and 5 μM SR 13179 in serum-free medium for 48 h. Untreated cells, grown under the same conditions, were used as control. After treatment, supernatants of the cultures were concentrated and subjected to zymography.

Where two headings read alike, the source gives them in different places.

In the case of `COc1cc(C2CC(O)c3ccc4ccccc4c3O2)cc(OC)c1OC` (centres unmarked) [SR 13179, 2-(3,4,5-trimethoxyphenyl)-3,4-dihydro-2H-benzo[h]chromen-4-ol], the IC50 in data set [1] was 3.01 µM; in data set [2] (144 h, continuous exposure six days, read-out: IC50, growth inhibition, LNCaP), 210 nM; in data set [2] (Table 5, read-out: Growth Inhibition (IC50), LNCaP cells), 210 nM; in data set [3] it was 180 nM; in data set [4], 529 nM; in data set [5] it was 370 nM. Further, in data set [6], the “hypodiploid (sub G1) fraction compared with untreated control” value is given as “nearly three-fold increase”. Moreover, in data set [7] (Day 10, oral and i.p., 10, 30 and 100 mg/kg once a day), the “tumors smaller than untreated control” value is listed as “about 50%”. Moreover, the “body weights of the treated mice” value in data set [7] (all doses studied (10, 30, 100 mg/kg; oral and i.p.)) is listed as “unaffected”. Further, the “tumor growth compared to untreated control” value in data set [7] (duration of the four-week study, oral and i.p.) is reported as “significantly inhibited”. Also, in data set [8], the “inhibition of MMP-2 activity” value is > 50%.
